The structures appear in SMILES notation. Some results are limits rather than exact numbers.

In general, Ki refers to the dissociation constant of the complex between target and ligand, obtained from inhibition or displacement.

This experiment deals with GST-Bc1-2 (Homo sapiens, UniProt P10415). Nature of the experiment: Time Resolved-Fluorescence Resonance Energy Transfer (TR-FRET) Bcl-2 binding assay with F-Bak peptide probe. The note with it: GST-Bcl-2 1 nM, F-Bak probe 100 nM, Tb-anti-GST 1 nM; '<' = below limit of detection; read-out: TR-FRET Bcl-2 Binding Ki. In general terms: Time-resolved FRET reads energy transfer from a long-lived donor to a nearby acceptor.
Sequence of GST-Bc1-2 (P10415 whole entry): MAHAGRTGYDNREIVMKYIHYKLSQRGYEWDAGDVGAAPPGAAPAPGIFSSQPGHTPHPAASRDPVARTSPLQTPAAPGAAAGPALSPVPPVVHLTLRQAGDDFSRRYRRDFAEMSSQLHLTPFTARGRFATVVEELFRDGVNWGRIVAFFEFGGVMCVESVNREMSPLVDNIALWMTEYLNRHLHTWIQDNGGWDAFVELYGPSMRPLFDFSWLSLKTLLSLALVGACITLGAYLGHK
As to `CO[C@H]1CC[C@H](COc2ncc(S(=O)(=O)NC(=O)c3ccc(N4CCN(CC5=C(c6ccc(Cl)cc6)CC(C)(C)CC5)CC4)cc3Oc3cnc4[nH]ccc4c3)cc2Cl)CC1` [Example 210, Trans-N-({5-chloro-6-[(4-methoxycyclohexyl)methoxy]pyridin-3-yl}sulfonyl)-4-(4-{[2-(4-chlorophenyl)-4,4-dimethylcyclohex-1-en-1-yl]methyl}piperazin-1-yl)-2-(1H-pyrrolo[2,3-b]pyridin-5-yloxy)benzamide], the Ki is 0.011 nM. As for `CO[C@H]1CC[C@@H](COc2ncc(S(=O)(=O)NC(=O)c3ccc(N4CCN(CC5=C(c6ccc(Cl)cc6)CC(C)(C)CC5)CC4)cc3Oc3cnc4[nH]ccc4c3)cc2Cl)CC1` [Example 211, Cis-N-({5-chloro-6-[(4-methoxycyclohexyl)methoxy]pyridin-3-yl}sulfonyl)-4-(4-{[2-(4-chlorophenyl)-4,4-dimethylcyclohex-1-en-1-yl]methyl}piperazin-1-yl)-2-(1H-pyrrolo[2,3-b]pyridin-5-yloxy)benzamide], the Ki was found to be 0.058 nM. The figure for `COCCOCCN1CCOC(CNc2ccc(S(=O)(=O)NC(=O)c3ccc(N4CCN(CC5=C(c6ccc(Cl)cc6)CC(C)(C)CC5)CC4)cc3Oc3cnc4[nH]ccc4c3)cc2[N+](=O)[O-])C1` (stereo not drawn) [Example 213, 4-(4-{[2-(4-chlorophenyl)-4,4-dimethylcyclohex-1-en-1-yl]methyl}piperazin-1-yl)-N-({4-[({4-[2-(2-methoxyethoxy)ethyl]morpholin-2-yl}methyl)amino]-3-nitrophenyl}sulfonyl)-2-(1H-pyrrolo[2,3-b]pyridin-5-yloxy)benzamide] is less than 0.01 nM; for `CC1(C)CCC(CN2CCN(c3ccc(C(=O)NS(=O)(=O)c4ccc(NCC5CN(CC#N)CCO5)c([N+](=O)[O-])c4)c(Oc4cnc5[nH]ccc5c4)c3)CC2)=C(c2ccc(Cl)cc2)C1` (stereo not drawn) [Example 214, 4-(4-{[2-(4-chlorophenyl)-4,4-dimethylcyclohex-1-en-1-yl]methyl}piperazin-1-yl)-N-{[4-({[4-(cyanomethyl)morpholin-2-yl]methyl}amino)-3-nitrophenyl]sulfonyl}-2-(1H-pyrrolo[2,3-b]pyridin-5-yloxy)benzamide] it is less than 0.01 nM; for `CN(C)CC(=O)N1CCOC(CNc2ccc(S(=O)(=O)NC(=O)c3ccc(N4CCN(CC5=C(c6ccc(Cl)cc6)CC(C)(C)CC5)CC4)cc3Oc3cnc4[nH]ccc4c3)cc2[N+](=O)[O-])C1` (stereo not drawn) [Example 215, 4-(4-{[2-(4-chlorophenyl)-4,4-dimethylcyclohex-1-en-1-yl]methyl}piperazin-1-yl)-N-{[4-({[4-(N,N-dimethylglycyl)morpholin-2-yl]methyl}amino)-3-nitrophenyl]sulfonyl}-2-(1H-pyrrolo[2,3-b]pyridin-5-yloxy)benzamide] it is less than 0.01 nM. As for `CC1(C)CCC(CN2CCN(c3ccc(C(=O)NS(=O)(=O)c4ccc(NCC5CN(CC(=O)O)CCO5)c([N+](=O)[O-])c4)c(Oc4cnc5[nH]ccc5c4)c3)CC2)=C(c2ccc(Cl)cc2)C1` (stereo not drawn) [Example 216, (2-{[(4-{[4-(4-{[2-(4-chlorophenyl)-4,4-dimethylcyclohex-1-en-1-yl]methyl}piperazin-1-yl)-2-(1H-pyrrolo[2,3-b]pyridin-5-yloxy)benzoyl]sulfamoyl}-2-nitrophenyl)amino]methyl}morpholin-4-yl)acetic acid], the Ki is less than 0.01 nM. The same measure for `CC1(C)CCC(CN2CCN(c3ccc(C(=O)NS(=O)(=O)c4ccc(NCC5CN(C6COC6)CCO5)c([N+](=O)[O-])c4)c(Oc4cnc5[nH]ccc5c4)c3)CC2)=C(c2ccc(Cl)cc2)C1` (stereo not drawn) [Example 217, 4-(4-{[2-(4-chlorophenyl)-4,4-dimethylcyclohex-1-en-1-yl]methyl}piperazin-1-yl)-N-{[3-nitro-4-({[4-(oxetan-3-yl)morpholin-2-yl]methyl}amino)phenyl]sulfonyl}-2-(1H-pyrrolo[2,3-b]pyridin-5-yloxy)benzamide]: less than 0.01 nM; for `CC1(C)CCC(CN2CCN(c3ccc(C(=O)NS(=O)(=O)c4ccc(NCC5CN(C6CC6)CCO5)c([N+](=O)[O-])c4)c(Oc4cnc5[nH]ccc5c4)c3)CC2)=C(c2ccc(Cl)cc2)C1` (stereo not drawn) [Example 218, 4-(4-{[2-(4-chlorophenyl)-4,4-dimethylcyclohex-1-en-1-yl]methyl}piperazin-1-yl)-N-[(4-{[(4-cyclopropylmorpholin-2-yl)methyl]amino}-3-nitrophenyl)sulfonyl]-2-(1H-pyrrolo[2,3-b]pyridin-5-yloxy)benzamide]: 0.013 nM; for `CC1(C)CCC(CN2CCN(c3ccc(C(=O)NS(=O)(=O)c4cnc(OCC5CCOCC5)c(S(C)(=O)=O)c4)c(Oc4cnc5[nH]ccc5c4)c3)CC2)=C(c2ccc(Cl)cc2)C1` [Example 219, 4-(4-{[2-(4-chlorophenyl)-4,4-dimethylcyclohex-1-en-1-yl]methyl}piperazin-1-yl)-N-{[5-(methylsulfonyl)-6-(tetrahydro-2H-pyran-4-ylmethoxy)pyridin-3-yl]sulfonyl}-2-(1H-pyrrolo[2,3-b]pyridin-5-yloxy)benzamide]: 1.19 nM.

Turning to `CC1(C)CCC(CN2CCN(c3ccc(C(=O)NS(=O)(=O)c4ccc(OCC5(F)CCOCC5)c(S(=O)(=O)C(F)(F)F)c4)c(Oc4cnc5[nH]ccc5c4)c3)CC2)=C(c2ccc(Cl)cc2)C1` [Example 220, 4-(4-{[2-(4-chlorophenyl)-4,4-dimethylcyclohex-1-en-1-yl]methyl}piperazin-1-yl)-N-({4-[(4-fluorotetrahydro-2H-pyran-4-yl)methoxy]-3-[(trifluoromethyl)sulfonyl]phenyl}sulfonyl)-2-(1H-pyrrolo[2,3-b]pyridin-5-yloxy)benzamide], the Ki was 0.988 nM. The same measure for `CC1(C)CCC(CN2CCN(c3ccc(C(=O)NS(=O)(=O)c4ccc(OCC5(C)CCOCC5)c([N+](=O)[O-])c4)c(Oc4cnc5[nH]ccc5c4)c3)CC2)=C(c2ccc(Cl)cc2)C1` [Example 221, 4-(4-{[2-(4-chlorophenyl)-4,4-dimethylcyclohex-1-en-1-yl]methyl}piperazin-1-yl)-N-({4-[(4-methyltetrahydro-2H-pyran-4-yl)methoxy]-3-nitrophenyl}sulfonyl)-2-(1H-pyrrolo[2,3-b]pyridin-5-yloxy)benzamide]: 0.049 nM; for `CCOC(=O)N1CCN(c2ccc(S(=O)(=O)NC(=O)c3ccc(N4CCN(CC5=C(c6ccc(Cl)cc6)CC(C)(C)CC5)CC4)cc3Oc3cnc4[nH]ccc4c3)cc2[N+](=O)[O-])CC1` [Example 222, ethyl 4-(4-{[4-(4-{[2-(4-chlorophenyl)-4,4-dimethylcyclohex-1-en-1-yl]methyl}piperazin-1-yl)-2-(1H-pyrrolo[2,3-b]pyridin-5-yloxy)benzoyl]sulfamoyl}-2-nitrophenyl)piperazine-1-carboxylate]: 0.938 nM.

In the case of `CC1(C)CCC(CN2CCN(c3ccc(C(=O)NS(=O)(=O)c4ccc(N5CCC(N6CCOCC6)CC5)c([N+](=O)[O-])c4)c(Oc4cnc5[nH]ccc5c4)c3)CC2)=C(c2ccc(Cl)cc2)C1` [Example 223, 4-(4-{[2-(4-chlorophenyl)-4,4-dimethylcyclohex-1-en-1-yl]methyl}piperazin-1-yl)-N-({4-[4-(morpholin-4-yl)piperidin-1-yl]-3-nitrophenyl}sulfonyl)-2-(1H-pyrrolo[2,3-b]pyridin-5-yloxy)benzamide], the Ki came out at 0.053 nM. `CC1(C)CCC(CN2CCN(c3ccc(C(=O)NS(=O)(=O)c4ccc(N[C@@H]5CCN(C(CF)CF)C5)c(S(=O)(=O)C(F)(F)F)c4)c(Oc4cnc5[nH]ccc5c4)c3)CC2)=C(c2ccc(Cl)cc2)C1` [Example 225, 4-(4-{[2-(4-chlorophenyl)-4,4-dimethylcyclohex-1-en-1-yl]methyl}piperazin-1-yl)-N-[(4-{[(3R)-1-(1,3-difluoropropan-2-yl)pyrrolidin-3-yl]amino}-3-[(trifluoromethyl)sulfonyl]phenyl)sulfonyl]-2-(1H-pyrrolo[2,3-b]pyridin-5-yloxy)benzamide]: the Ki was determined as 0.196 nM. The figure for `CC(C)N1CCC(Nc2ccc(S(=O)(=O)NC(=O)c3ccc(N4CCN(CC5=C(c6ccc(Cl)cc6)CC(C)(C)CC5)CC4)cc3Oc3cnc4[nH]ccc4c3)cc2[N+](=O)[O-])CC1` [Example 226, 4-(4-{[2-(4-chlorophenyl)-4,4-dimethylcyclohex-1-en-1-yl]methyl}piperazin-1-yl)-N-({4-[(1-isopropylpiperidin-4-yl)amino]-3-nitrophenyl}sulfonyl)-2-(1H-pyrrolo[2,3-b]pyridin-5-yloxy)benzamide] is 0.139 nM. Take `CC1(C)CCC(CN2CCN(c3ccc(C(=O)NS(=O)(=O)c4ccc(NC5CCN(C(C)(C)C)CC5)c([N+](=O)[O-])c4)c(Oc4cnc5[nH]ccc5c4)c3)CC2)=C(c2ccc(Cl)cc2)C1` [Example 227, N-({4-[(1-tert-butylpiperidin-4-yl)amino]-3-nitrophenyl}sulfonyl)-4-(4-{[2-(4-chlorophenyl)-4,4-dimethylcyclohex-1-en-1-yl]methyl}piperazin-1-yl)-2-(1H-pyrrolo[2,3-b]pyridin-5-yloxy)benzamide]: the Ki is less than 0.01 nM. The same measure for `COCCN1CCCC(CNc2ccc(S(=O)(=O)NC(=O)c3ccc(N4CCN(CC5=C(c6ccc(Cl)cc6)CC(C)(C)CC5)CC4)cc3Oc3cnc4[nH]ccc4c3)cc2[N+](=O)[O-])C1` (stereo not drawn) [Example 228, 4-(4-{[2-(4-chlorophenyl)-4,4-dimethylcyclohex-1-en-1-yl]methyl}piperazin-1-yl)-N-{[4-({[1-(2-methoxyethyl)piperidin-3-yl]methyl}amino)-3-nitrophenyl]sulfonyl}-2-(1H-pyrrolo[2,3-b]pyridin-5-yloxy)benzamide]: 26.8 nM; for `CC1(C)CCC(CN2CCN(c3ccc(C(=O)NS(=O)(=O)c4ccc(NCC5CCCN(CC#N)C5)c([N+](=O)[O-])c4)c(Oc4cnc5[nH]ccc5c4)c3)CC2)=C(c2ccc(Cl)cc2)C1` (stereo not drawn) [Example 229, 4-(4-{[2-(4-chlorophenyl)-4,4-dimethylcyclohex-1-en-1-yl]methyl}piperazin-1-yl)-N-{[4-({[1-(cyanomethyl)piperidin-3-yl]methyl}amino)-3-nitrophenyl]sulfonyl}-2-(1H-pyrrolo[2,3-b]pyridin-5-yloxy)benzamide]: 2.11 nM.

(Values after patent publication US8580794B2 (AbbVie Inc., priority 2009, dated 2013).)
